Results: patent publication US20040029816A1, “Hepatoprotective activity of 10-O-P-hydroxybenzoyiaucubin” (priority 2002, published 2004)

Experiments:
[1] = system: CCl4 induced hepatic injury; test: Hepatoprotective activity (in vivo) against CCl4 induced hepatic injury in rats
Description: Treatment of experimental animals with the 033 and 033(1) against CCU induced liver damage reduced the elevated levels of serum GPT, GOT, ALP, bilirubin, TG and hepatic lipid peroxidation and increased the GSH level.

[2] = system: GalN induced hepatic injury; test: Hepatoprotective activity (in vivo) against galactosamine (GalN) induced hepatic injury in rats
Description: The hepatoprotective activity observed with 033 and 033(1) was 59.58 & 44.97, 56.62 & 44.05, 54.28 & 47.66, 57.71 & 66.66, 57.89 & 49.33 percent in serum GPT, GOT, Bilirubin, ALP, and TG respectively and 67.51 & 48.34, 66.56 & 55.13 percent in hepatic lipid peroxidation (LP) and GSH respectively. The same with silymarin was 57.38, 55.40, 60.00, 53.54,46.17, 69.59, 67.18 percent respectively (Table-2). [table]

[3] = liver homogenate, rats, fed p.o. at 48 h, 24 h, 2 h before and 6 h after CCl4 (1 ml/kg, p.o.), 033 400 mg/kg, 033 (1) and silymarin 50 mg/kg, mean of six animals
[4] = rats, fed p.o. at 48 h, 24 h, 2 h before and 6 h after CCl4 (1 ml/kg, p.o.), 033 400 mg/kg, 033 (1) and silymarin 50 mg/kg, mean of six animals
[5] = rats, fed p.o. at 48 h, 24 h, 2 h before and 6 h after CCl4 (1 ml/kg, p.o.), 033 400 mg/kg, 033 (1) and silymarin 50 mg/kg, mean of six animals, listed as 033(1)
[6] = liver, rats, fed p.o. at 48 h, 24 h, 2 h before and 6 h after GalN (300 mg/kg, s.c.), 033 400 mg/kg, 033 (1) and silymarin 50 mg/kg, mean of six animals
[7] = rats, fed p.o. at 48 h, 24 h, 2 h before and 6 h after GalN (300 mg/kg, s.c.), 033 400 mg/kg, 033 (1) and silymarin 50 mg/kg, mean of six animals

## O=C(OCC1=C[C@@H](O)[C@@H]2C=CO[C@@H](O[C@@H]3O[C@H](CO)[C@@H](O)[C@H](O)[C@H]3O)[C@H]12)c1ccc(O)cc1 [033 (1), 10-O-p-hydroxybenzoylaucubin]
[1]; experimentally induced hepatic damage with CCl4 in rats
  hepatoprotective activity (in words): marked hepatoprotective activity
[1]; [3]
  Hepatoprotective activity, hepatic Glutathione (GSH): 38.12%
  Hepatoprotective activity, hepatic Lipid peroxidation (LP): 41.48%
[1]; [4]
  Hepatoprotective activity, serum ALP (table head: Al.F): 60.2%
  Hepatoprotective activity, serum Bilirubin (table head: Bihrubin (mg %)): 71.79%
  Hepatoprotective activity, serum GOT (Units): 57.43%
  Hepatoprotective activity, serum GPT (table head: OPT (Units)): 59.52%
  Hepatoprotective activity, serum Triglycerides (TG): 38.53%
[1]; [5]
  Hepatoprotective activity, serum ALP (table head: Al.F): 60.17%
  Hepatoprotective activity, serum GOT (Units): 57.42%
[2]; experimentally induced hepatic damage with galactosamine (GalN) in rats
  hepatoprotective activity (in words): marked hepatoprotective activity
[2]; [6]
  Hepatoprotective activity, hepatic Glutathione (GSH): 55.13%
  Hepatoprotective activity, hepatic Lipid peroxidation (LP): 48.34%
[2]; [7]
  Hepatoprotective activity, serum ALP: 66.66%
  Hepatoprotective activity, serum Bilirubin (mg %): 47.66%
  Hepatoprotective activity, serum GOT (Units): 44.05%
  Hepatoprotective activity, serum GPT (Units): 44.97%
  Hepatoprotective activity, serum Triglycerides (mg %): 49.33%
